Assay results from PubChem BioAssay AID1794805 (Yongcheng Song lab at Baylor College of Medicine, 2022).
Calls of active or inactive are those of the source.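 Rule for the calls: active = EC50 under 50 µM in a live-cell viability test; inactive = the rest.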

System: HL60 proliferation, XTT absorbance
Experiment: HL60 leukemia cell growth inhibition, dose response, XTT absorbance (AID 1794805)

Row | SMILES | EC50
1 | NCc1ccc(-c2ccc3cc(C(=O)NCC4CCNCC4)oc3c2)cc1 | > 51 µM (inactive)
2 | O=C(NCC1CCNCC1)c1c[nH]c2cc(-c3ccc(N4CCCCC4)cc3)ccc12 | 50 µM
3 | O=C(NCC1CCNCC1)c1cc2cc(-c3cn[nH]c3)ccc2[nH]1 | > 51 µM (inactive)
4 | O=C(NCC1CCNCC1)c1cc2cc(-c3ccc(N4CCCCC4)cc3)ccc2[nH]1 | 50 µM
5 | O=C(NCC1CCNCC1)c1c[nH]c2cc(-c3ccc(N4CCCC4)cc3)ccc12 | 50 µM
6 | O=C(NCC1CCNCC1)c1coc2cc(-c3ccc(N4CCCCC4)cc3)ccc12 | 9.7 µM
7 | O=C(NCC1CCNCC1)c1cc2cc(-c3ccc(N4CCCCC4)cc3)ccc2s1 | 9 µM

Next, values leading:

Row | EC50 | SMILES
8 | 26 µM | O=C(NCC1CCNCC1)c1cc2ccc(-c3ccc(N4CCCC4)cc3)cc2s1
9 | 10 µM | O=C(NCC1CCNCC1)c1cc2ccc(-c3ccc(N4CCCCC4)cc3)cc2s1
10 | > 51 µM (inactive) | NC(=O)c1ccc(-c2ccc3cc(C(=O)NCC4CCNCC4)sc3c2)cc1
